Test results reported in PubChem BioAssay AID330 (DTP/NCI, 2004).
Where “and” joins values, the source holds several entries; their conditions need not be identical. Identical values can stand only once. Inconclusive results and toxic doses are left out. How the source made its calls: active means survival T/C of 150% or more; inactive means T/C below 125% in these data.

System: P388 leukemia ip, CD2F1 mice, survival T/C
Experiment: NCI In Vivo Anticancer Drug Screen. Data for tumor model P388 Leukemia (intraperitoneal) in CD2F1 (CDF1) mice
Conditions: endpoint: median survival time, higher = longer survival
Method in brief: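 Mice carrying the transplanted tumor received test compound or vehicle. Survival was recorded in each group, and the value is the treated-group measurement divided by that of the vehicle-treated control group.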

[1] = dose: 60.0 mg/kg/injection, schedule: Q01DX005 (ip), vehicle: saline with Tween-80
[2] = dose: 120.0 mg/kg/injection, schedule: Q01DX005 (ip), vehicle: saline with Tween-80
[3] = dose: 240.0 mg/kg/injection, schedule: Q01DX005 (ip), vehicle: saline with Tween-80
[4] = dose: 25.0 mg/kg/injection, schedule: Q01DX005 (ip), vehicle: Klucel (hydroxypropylcellulose) (HPC)
[5] = dose: 50.0 mg/kg/injection, schedule: Q01DX005 (ip), vehicle: Klucel (hydroxypropylcellulose) (HPC)
[6] = dose: 3.12 mg/kg/injection, schedule: Q01DX005 (ip), vehicle: saline with Tween-80
[7] = dose: 6.25 mg/kg/injection, schedule: Q01DX005 (ip), vehicle: saline with Tween-80
[8] = dose: 25.0 mg/kg/injection, schedule: Q01DX009 (ip), vehicle: saline with Tween-80
[9] = dose: 100.0 mg/kg/injection, schedule: Q01DX005 (ip), vehicle: Klucel (hydroxypropylcellulose) (HPC)
[10] = dose: 200.0 mg/kg/injection, schedule: Q01DX005 (ip), vehicle: Klucel (hydroxypropylcellulose) (HPC)
[11] = dose: 100.0 mg/kg/injection, schedule: Q01DX009 (ip), vehicle: Klucel (hydroxypropylcellulose) (HPC)
[12] = dose: 200.0 mg/kg/injection, schedule: Q01DX009 (ip), vehicle: Klucel (hydroxypropylcellulose) (HPC)
[13] = dose: 50.0 mg/kg/injection, schedule: Q01DX009 (ip), vehicle: saline with Tween-80
[14] = dose: 100.0 mg/kg/injection, schedule: Q01DX009 (ip), vehicle: saline with Tween-80
[15] = dose: 50.0 mg/kg/injection, schedule: Q01DX005 (ip), vehicle: saline with Tween-80
[16] = dose: 100.0 mg/kg/injection, schedule: Q01DX005 (ip), vehicle: saline with Tween-80
[17] = dose: 200.0 mg/kg/injection, schedule: Q01DX005 (ip), vehicle: saline with Tween-80

Measured: T/C

O=S(=O)(Nc1ccccc1Cl)c1ccc(F)cc1
inactive: [1] 96 % of control | [2] 104 % of control | [3] 100 % of control

CNC1C(c2ccc(C)cc2)=NN(c2ccccc2)C1c1ccccc1 (centres undefined)
inactive: dose: 100.0 mg/kg/injection, schedule: Q01DX001 (ip), vehicle: saline sonified 100 % of control | dose: 200.0 mg/kg/injection, schedule: Q01DX001 (ip), vehicle: saline sonified 100 % of control | dose: 400.0 mg/kg/injection, schedule: Q01DX001 (ip), vehicle: saline sonified 105 % of control

C#CCC(C(C)=O)C(C)=O.[C-]#[O+].[C-]#[O+].[C-]#[O+].[C-]#[O+].[C-]#[O+].[C-]#[O+].[Co].[Co]
inactive: dose: 12.5 mg/kg/injection, schedule: Q01DX005 (ip), vehicle: Klucel (hydroxypropylcellulose) (HPC) 108 % of control | [4] 102 % of control | [5] 108 % of control and 95 % of control

O=C1CCCN1C(=O)C1CC1
inactive: dose: 50.0 mg/kg/injection, schedule: Q01DX001 (ip), vehicle: saline 100 % of control | dose: 100.0 mg/kg/injection, schedule: Q01DX001 (ip), vehicle: saline 109 % of control | dose: 200.0 mg/kg/injection, schedule: Q01DX001 (ip), vehicle: saline 100 % of control

CC(=O)NC#N.CCN(CC)CC.[CH-]1CCCCC1.[CH-]1CCCCC1.[CH-]1CCCCC1.[Cl-].[Sn+4]
inactive: [6] 106 % of control | [7] 105 % of control

c1ccc(-c2c(-c3ccccc3)[c+]2-c2ccccc2)cc1
inactive: dose: 100.0 mg/kg/injection, schedule: Q01DX001 (ip), vehicle: gum acacia 99 % of control | dose: 200.0 mg/kg/injection, schedule: Q01DX001 (ip), vehicle: gum acacia 99 % of control

NC(=S)N/N=C1/C(=O)N(c2ccccc2)C(=O)C1C(=O)Nc1ccccc1 (centres undefined)
inactive: dose: 100.0 mg/kg/injection, schedule: Q01DX001 (ip), vehicle: saline with Tween-80 100 % of control | dose: 200.0 mg/kg/injection, schedule: Q01DX001 (ip), vehicle: saline with Tween-80 106 % of control | dose: 400.0 mg/kg/injection, schedule: Q01DX001 (ip), vehicle: saline with Tween-80 98 % of control

O=c1c2cnccc2cc2n1CCc1c-2[nH]c2ccccc12
inactive: dose: 3.12 mg/kg/injection, schedule: Q01DX009 (ip), vehicle: saline with Tween-80 101 % of control | dose: 6.25 mg/kg/injection, schedule: Q01DX009 (ip), vehicle: saline with Tween-80 101 % of control and 86 % of control | dose: 12.5 mg/kg/injection, schedule: Q01DX009 (ip), vehicle: saline with Tween-80 101 % of control | [8] 110 % of control

CCCc1cc2ccccc2c2ccccc12
inactive: [5] 102 % of control | [9] 96 % of control | [10] 99 % of control

CCOCCOCCOC(C)Oc1ccccc1OC (centres undefined)
inactive: [1] 100 % of control | [2] 104 % of control | [3] 106 % of control

COc1cccc(CCN2C(=O)CCC3=C2CCC3=O)c1
inactive: [4] 94 % of control | [5] 105 % of control | [9] 102 % of control | [10] 98 % of control

CCCCCCC(=O)/C=C/c1cc(Cl)cc(Cl)c1OCOC
inactive: [11] 116 % of control | [12] 100 % of control

C=C1C(=O)C23C(OC(=O)CCCCC)C1CCC2C12COC3(O)C(O)C1C(C)(C)CCC2O (centres undefined)
inactive: dose: 3.75 mg/kg/injection, schedule: Q01DX009 (ip), vehicle: saline with Tween-80 102 % of control | dose: 7.5 mg/kg/injection, schedule: Q01DX009 (ip), vehicle: saline with Tween-80 105 % of control | dose: 15.0 mg/kg/injection, schedule: Q01DX009 (ip), vehicle: saline with Tween-80 113 % of control | dose: 30.0 mg/kg/injection, schedule: Q01DX009 (ip), vehicle: saline with Tween-80 104 % of control

COc1cc(C)ccc1C1OC(=O)c2c1ccc(OC)c2OC (centres undefined)
inactive: [8] 106 % of control | [13] 101 % of control | [14] 97 % of control | dose: 200.0 mg/kg/injection, schedule: Q01DX009 (ip), vehicle: saline with Tween-80 108 % of control

CC1(n2[nH]c(=O)n(-c3ccccc3)c2=O)Cn2c(=O)n(-c3ccccc3)c(=O)n2-c2ccccc21 (centres undefined)
inactive: [5] 101 % of control | [9] 96 % of control | [10] 108 % of control

CNC(=O)OC1/C(C)=C\C(C)C(O)C(OC)CC(C)CC2=C(OC)C(=O)C=C(C2=O)N(C)C(=O)/C(C)=C/C=C\C1OC (centres undefined)
inactive: dose: 3.12 mg/kg/injection, schedule: Q01DX009 (ip), vehicle: DMSO 110 % of control and 98 % of control | dose: 6.25 mg/kg/injection, schedule: Q01DX009 (ip), vehicle: DMSO 99 % of control and 109 % of control and 110 % of control | dose: 12.5 mg/kg/injection, schedule: Q01DX009 (ip), vehicle: DMSO 104 % of control and 122 % of control and 123 % of control | dose: 25.0 mg/kg/injection, schedule: Q01DX009 (ip), vehicle: DMSO 109 % of control and 115 % of control and 122 % of control

Clc1ccc2ccc3cccnc3c2n1
inactive: dose: 7.5 mg/kg/injection, schedule: Q01DX005 (ip), vehicle: saline 102 % of control | dose: 15.0 mg/kg/injection, schedule: Q01DX005 (ip), vehicle: saline 97 % of control | dose: 30.0 mg/kg/injection, schedule: Q01DX005 (ip), vehicle: saline 93 % of control | dose: 60.0 mg/kg/injection, schedule: Q01DX005 (ip), vehicle: saline 102 % of control | dose: 120.0 mg/kg/injection, schedule: Q01DX005 (ip), vehicle: saline 105 % of control

CC(C)CNc1ncnc2n[nH]nc12
inactive: [15] 100 % of control | [16] 103 % of control | [17] 100 % of control

Cc1nn(C(=O)c2cccnc2)c(-c2ccccc2)c1N=Nc1ccc(S(=O)(=O)N=C(N)N)cc1
inactive: [6] 98 % of control | [7] 95 % of control | dose: 12.5 mg/kg/injection, schedule: Q01DX005 (ip), vehicle: saline with Tween-80 105 % of control and 86 % of control | [15] 89 % of control

Cc1cc(Cl)ccc1NC(=O)Oc1ccc(C#N)cc1
inactive: [1] 90 % of control | [2] 90 % of control | [3] 90 % of control

C=CCSC(C)=O
inactive: dose: 30.0 mg/kg/injection, schedule: Q01DX005 (ip), vehicle: saline with Tween-80 98 % of control | [1] 100 % of control | [2] 99 % of control

COCCCC12C=C(OC)C(=O)C=C1OC(c1cc(OC)c(OC)c(OC)c1)C2C (centres undefined)
inactive: dose: 8.75 mg/kg/injection, schedule: Q01DX005 (ip), vehicle: Klucel (hydroxypropylcellulose) (HPC) 100 % of control | dose: 17.5 mg/kg/injection, schedule: Q01DX005 (ip), vehicle: Klucel (hydroxypropylcellulose) (HPC) 106 % of control | dose: 35.0 mg/kg/injection, schedule: Q01DX005 (ip), vehicle: Klucel (hydroxypropylcellulose) (HPC) 96 % of control

COC(=O)/C(C)=N/SC(c1ccccc1)(c1ccccc1)c1ccccc1
inactive: [15] 102 % of control | [16] 104 % of control | [17] 98 % of control

Cc1ccc(S(=O)(=O)Cl)cc1Cl
inactive: [8] 101 % of control | [13] 102 % of control | [14] 101 % of control

COc1ccc2c(N=[N+]=[N-])ccnc2c1
inactive: [1] 89 % of control | [2] 89 % of control

CCOP(O)(=S)OCC.[Ce]
inactive: dose: 100.0 mg/kg/injection, schedule: Q04DX003 (ip), vehicle: Klucel (hydroxypropylcellulose) (HPC) 99 % of control | dose: 200.0 mg/kg/injection, schedule: Q04DX003 (ip), vehicle: Klucel (hydroxypropylcellulose) (HPC) 100 % of control | dose: 400.0 mg/kg/injection, schedule: Q04DX003 (ip), vehicle: Klucel (hydroxypropylcellulose) (HPC) 93 % of control

CCCCCCSc1nc2ccc(N=Cc3ccccc3O)cc2s1
inactive: dose: 50.0 mg/kg/injection, schedule: Q01DX009 (ip), vehicle: Klucel (hydroxypropylcellulose) (HPC) 94 % of control | [11] 87 % of control | [12] 90 % of control

O=C1NCC2CCCC1C2 (centres undefined)
inactive: [15] 101 % of control | [16] 100 % of control | [17] 97 % of control

NC(CSSCC(N)C(=O)NCC(=O)O)C(=O)NCC(=O)O (centres undefined)
inactive: dose: 50.0 mg/kg/injection, schedule: Q01DX005 (ip), vehicle: saline 106 % of control | dose: 100.0 mg/kg/injection, schedule: Q01DX005 (ip), vehicle: saline 100 % of control | dose: 200.0 mg/kg/injection, schedule: Q01DX005 (ip), vehicle: saline 104 % of control

CCN(CC)c1ccc2cc(C(=O)c3cccs3)c(=O)oc2c1
inactive: [1] 104 % of control | [2] 96 % of control | [3] 103 % of control
